The values that follow come from patent publication US20050009840A1 (SUGEN, INC., priority 2003, published 2005).

Structures can show the parent of a compound that is named as a salt.

T1 sequence (P08581 1078-1345 limits assumed): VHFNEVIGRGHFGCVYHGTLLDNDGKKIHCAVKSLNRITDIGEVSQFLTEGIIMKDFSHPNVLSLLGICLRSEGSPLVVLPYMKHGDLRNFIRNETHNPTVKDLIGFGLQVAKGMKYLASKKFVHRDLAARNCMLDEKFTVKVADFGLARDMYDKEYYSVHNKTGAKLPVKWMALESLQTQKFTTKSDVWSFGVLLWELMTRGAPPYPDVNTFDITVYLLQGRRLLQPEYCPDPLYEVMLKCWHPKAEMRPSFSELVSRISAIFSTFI

The test concerns the target T1, Met kinase domain (GST fusion protein) (Homo sapiens, UniProt P08581).
T1 construct: Purified GST fusion protein containing the Met kinase domain
Description: Met transphosphorylation assay (ELISA, poly(glu-tyr) substrate).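 Note: Cell-free ELISA with plate-bound poly(Glu:Tyr 4:1) phosphorylated by GST-fused Met kinase domain plus ATP and Mn2+, phosphotyrosine detected by anti-phosphotyrosine antibody with HRP and ABTS read-out.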 Particulars: read-out: Met IC50. The test is classed as biochemical. On the technique in general: An ELISA detects its analyte on a solid surface through an enzyme-linked reagent.
Description: General procedure is as follows: a compound is introduced to cells expressing the test kinase, either naturally or recombinantly, for a selected period of time after which, if the test kinase is a receptor, a ligand known to activate the receptor is added. The cells are lysed and the lysate is transferred to the wells of an ELISA plate previously coated with a specific antibody recognizing the substrate of the enzymatic phosphorylation reaction. Non-substrate components of the cell lysate are washed away and the amount of phosphorylation on the substrate is detected with an antibody specifically recognizing phosphotyrosine compared with control cells that were not contacted with a test compound.
Met Transphosphorylation Assay
This assay is used to measure phosphotyrosine levels on a poly(glutamic acid:tyrosine, 4:1) substrate as a means for identifying agonists/antagonists of met transphosphorylation of the substrate.
PBS, Gibco Catalog # 450-1300EB • 4. 50 mM HEPES • 5. […] Purified GST fusion protein containing the Met kinase domain, SUGEN, Inc. • 7. TBST Buffer. • 8. 10% aqueous (MilliQue H2O) DMSO. • 9. […] 2× Kinase Dilution Buffer: for 100 mL, mix 10 mL 1M HEPESat pH 7.5 with 0.4 mL 5% BSA/PBS, 0.2 mL 0.1 M sodium orthovanadate and 1 mL 5M sodium chloride in 88.4 mL dH2O. • 11. 4× ATP Reaction Mixture: for 10 mL, mix 0.4 mL 1 M manganese chloride and 0.02 mL 0.1 M ATP in 9.56 mL dH2O. • 12. 4× Negative Controls Mixture: for 10 mL, mix 0.4 mL 1 M manganese chloride in 9.6 mL dH2O. • 13. […] 500 mM EDTA. • 15. Antibody Dilution Buffer: for 100 mL, mix 10 mL 5% BSA/PBS, 0.5 mL 5% Carnation® Instant Milk in PBS and 0.1 mL 0.1 M sodium orthovanadate in 88.4 mL TBST. • 16. Rabbit polyclonal antophosphotyrosine antibody, SUGEN, Inc. • 17. Goat anti-rabbit horseradish peroxidase conjugated antibody, Biosource, Inc. • 18. ABTS Solution: for 1 L, mix 19.21 g citric acid, 35.49 g Na2HPO4 and 500 mg ABTS with sufficient dH2O to make 1 L. • 19. ABTS/H2O2: mix 15 mL ABST solution with 2μL H2O2 five minutes before use. • 20. 0.2 M HCl Procedure: • 1. Coat ELISA plates with 2 μg Poly(Glu-Tyr) in 100 μL PBS, hold-overnight at 4° C. • 2. Block plate with 150 μL of 5% BSA/PBS for 60 min. • 3. Wash plate twice with PBS then once with 50 mM Hepes buffer pH 7.4. • 4. Add 50 μl of the diluted kinase to all wells. (Purified kinase is diluted with Kinase Dilution Buffer. Final concentration should be 10 ng/well.) • 5. Add 25 μL of the test compound (in 4% DMSO) or DMSO alone (4% in dH2O) for controls to plate. • 6. Incubate the kinase/compound mixture for 15 minutes. • 7. Add 25 μL of 40 mM MnCl2 to the negative control wells. • 8. Add 25 μL ATP/MnCl2 mixture to the all other wells (except the negative controls). Incubate for 5 min. • 9. Add 25 μL 500 mM EDTA to stop reaction. • 10. Wash plate 3× with TBST. • 11. Add 100 μL rabbit polyclonal anti-Ptyr diluted 1:10,000 in Antibody Dilution Buffer to each well. Incubate, with shaking, at room temperature for one hour. • 12. Wash plate 3× with TBST. • 13. […] Add 100 μL per well and incubate at room temperature, with shaking, for one hour. • 14. Wash plate 1× with PBS. • 15. Add 100 μl of ABTS/H2O2 solution to each well. • 16. If necessary, stop the development reaction with the addition of 100 μl of 0.2M HCl per well. • 17.
Regarding `CC(Oc1nc(-c2ccc(C(=O)NCCCN3CCCC3)cc2)cnc1N)c1c(Cl)cccc1Cl` (centres unmarked) [II-167, 4-{5-Amino-6-[1-(2,6-dichloro-phenyl)-ethoxy]-pyrazin-2-yl}-N-(3-pyrrolidin-1-yl-propyl)-benzamide], the IC50 was found to be 220 nM.

For the compound `CC(Oc1nc(-c2cccc(C(=O)NC3CCN(C)CC3)c2)cnc1N)c1c(Cl)cccc1Cl` (centres unmarked) [II-169, 3-{5-Amino-6-[1-(2,6-dichloro-phenyl)-ethoxy)-pyrazin-2-yl}-N-(1-methyl-piperidin-4-yl)-benzamide], the IC50 was determined as 180 nM.

`CC(Oc1nc(-c2cccc(C(=O)NCCN3CCCC3)c2)cnc1N)c1c(Cl)cccc1Cl` (centres unmarked) [II-170, 3-{5-Amino-6-[1-(2,6-dichloro-phenyl)-ethoxy]-pyrazin-2-yl}-N-(2-pyrrolidin-1-yl-ethyl)-benzamide]: the IC50 was 330 nM.

On to `CC(Oc1nc(-c2cccc(C(=O)N3C[C@@H](C)N[C@@H](C)C3)c2)cnc1N)c1c(Cl)cccc1Cl` (stereo partly drawn) [II-171, (3-{5-Amino-6-[1-(2,6-dichloro-phenyl)-ethoxy]-pyrazin-2-yl}-phenyl)-((3R,5S)-3,5-dimethyl-piperazin-1-yl)-methanone], for which the half-maximal inhibitory concentration (IC50) stood at 360 nM.

Regarding `CC(Oc1nc(-c2cccc(C(=O)NCCN3CCOCC3)c2)cnc1N)c1c(Cl)cccc1Cl` (centres unmarked) [II-172, 3-{5-Amino-6-[1-(2,6-dichloro-phenyl)-ethoxy]-pyrazin-2-yl}-N-(2-morpholin-4-yl-ethyl)-benzamide], the IC50 was determined as 480 nM.

For the compound `CC(Oc1nc(-c2cccc(C(=O)N3CCC[C@H]3CN3CCCC3)c2)cnc1N)c1c(Cl)cccc1Cl` (stereo partly drawn) [II-173, (3-{5-Amino-6-[1-(2,6-dichloro-phenyl)-ethoxy]-pyrazin-2-yl}-phenyl)-((S)-2-pyrrolidin-1-ylmethyl-pyrrolidin-1-yl)-methanone], the IC50 came to 180 nM.

For the compound `CC(Oc1nc(-c2cccc(C(=O)N3CCC(N4CCCC4)CC3)c2)cnc1N)c1c(Cl)cccc1Cl` (centres unmarked) [II-174, (3-{5-Amino-6-[1-(2,6-dichloro-phenyl)-ethoxy]-pyrazin-2-yl}-phenyl)-(4-pyrrolidin-1-yl-piperidin-1-yl)-methanone], the IC50 worked out at 170 nM.

On to `CC(=O)N1CCN(CCNC(=O)c2ccc(-c3cnc(N)c(OC(C)c4c(Cl)cccc4Cl)n3)cc2)CC1` (centres unmarked) [II-175, N-[2-(4-Acetyl-piperazin-1-yl)-ethyl]-4-{5-amino-6-[1-(2,6-dichloro-phenyl)-ethoxy]-pyrazin-2-yl}-benzamide], for which the IC50 turned out to be 280 nM.

Regarding `CC(=O)N1CCN(CCNC(=O)c2cccc(-c3cnc(N)c(OC(C)c4c(Cl)cccc4Cl)n3)c2)CC1` (centres unmarked) [II-176, N-[2-(4-Acetyl-piperazin-1-yl)-ethyl]-3-{5-amino-6-[1-(2,6-dichloro-phenyl)-ethoxy]-pyrazin-2-yl}-benzamide], the IC50 stood at 350 nM.

As for `CC(Oc1nc(-c2cccc(C(=O)N3CCC[C@@H]3CN3CCCC3)c2)cnc1N)c1c(Cl)cccc1Cl` (stereo partly drawn) [II-177, (3-{5-Amino-6-[1-(2,6-dichloro-phenyl)-ethoxy]-pyrazin-2-yl}-phenyl)-((R)-2-pyrrolidin-1-ylmethyl-pyrrolidin-1-yl)-methanone], the IC50 came out at 330 nM.

Take `CC(Oc1nc(-c2cccc(C(=O)NCCCN3CCCC3)c2)cnc1N)c1c(Cl)cccc1Cl` (centres unmarked) [II-178, 3-{5-Amino-6-[1-(2,6-dichloro-phenyl)-ethoxy]-pyrazin-2-yl}-N-(3-pyrrolidin-1-yl-propyl)-benzamide]: the IC50 amounted to 340 nM.

`CC(Oc1nc(-c2cccc(C(=O)N3CC[C@H](N)C3)c2)cnc1N)c1c(Cl)cccc1Cl` (stereo partly drawn) [II-179, (3-{5-Amino-6-[1-(2,6-dichloro-phenyl)-ethoxy]-pyrazin-2-yl}-phenyl)-((S)-3-amino-pyrroldin-1-yl)-methanone]: the IC50 stood at 110 nM.

On to `CC(Oc1nc(-c2cccc(C(=O)N3CC[C@@H](N)C3)c2)cnc1N)c1c(Cl)cccc1Cl` (stereo partly drawn) [II-180, (3-{5-Amino-6-[1-(2,6-dichloro-phenyl)-ethoxy]-pyrazin-2-yl}-phenyl)-((R)-3-amino-pyrrolidin-1-yl)-methanone hydrochloride salt], for which the IC50 was 180 nM.

With `CC(Oc1nc(-c2cccc(C(=O)N3CCN(C)CC3)c2)cnc1N)c1c(Cl)cccc1Cl` (centres unmarked) [II-181, (3-{5-Amino-6-[1-(2,6-dichloro-phenyl)-ethoxy]-pyrazin-2-yl}-phenyl)-(4-methyl-piperazin-1-yl)-methanone], the IC50 is 250 nM.

Turning to `CC(Oc1nc(-c2ccc(NC(=O)NCCN3CCOCC3)cc2)cnc1N)c1c(F)ccc(F)c1Cl` (centres unmarked) [II-182, 1-(4-{5-Amino-6-[1-(2-chloro-3,6-difluoro-phenyl)-ethoxy]-pyrazin-2-yl}-phenyl)-3-(2-morpholin-4-yl-ethyl)-urea], the IC50 was 180 nM.

For the compound `CC(Oc1nc(-c2ccc(NC(=O)N3CCC[C@@H]3CN3CCCC3)cc2)cnc1N)c1c(F)ccc(F)c1Cl` (stereo partly drawn) [II-183, (R)-2-Pyrrolidin-1-ylmethyl-pyrrolidin-1-carboxylic acid (4-{5-amino-6-[1-(2-chloro-3,6-difluoro-phenyl)-ethoxy]-pyrazin-2-yl}-phenyl)-amide], the IC50 stood at 210 nM.

`CC(Oc1nc(-c2ccc(NC(=O)NCCN3CCCC3)cc2)cnc1N)c1c(F)ccc(F)c1Cl` (centres unmarked) [II-184, 1-(4-{5-Amino-6-[1-(2-chloro-3,6-difluoro-phenyl)-ethoxy]-pyrazin-2-yl}-phenyl)-3-(2-pyrrolidin-1-yl-ethyl)-urea]: the IC50 turned out to be 180 nM.

Consider `CC(Oc1nc(-c2ccc(NC(=O)N3CCN(C)CC3)cc2)cnc1N)c1c(F)ccc(F)c1Cl` (centres unmarked) [II-185, 4-Methyl-piperazin-1-carboxylic acid (4-{5-amino-6-[1-(2-chloro-3,6-difluoro-phenyl)-ethoxy]-pyrazin-2-yl}-phenyl)-amide], for which the IC50 stood at 100 nM.

As for `CC(Oc1nc(-c2ccc(NC(=O)NCCO)cc2)cnc1N)c1c(F)ccc(F)c1Cl` (centres unmarked) [II-186, 1-(4-{5-Amino-6-[1-(2-chloro-3,6-difluoro-phenyl)-ethoxy]-pyrazin-2-yl}-phenyl)-3-(2-hydroxy-ethyl)-urea], the IC50 is 210 nM.

`CC(Oc1nc(-c2ccc(NC(=O)N3CC[C@H](N)C3)cc2)cnc1N)c1c(F)ccc(F)c1Cl` (stereo partly drawn) [II-187, (S)-3-Amino-pyrrolidine-1-carboxylic acid (4-{5-amino-6-[1-(2-chloro-3,6-difluoro-phenyl)-ethoxy]-pyrazin-2-yl}-phenyl)-amide]: the IC50 turned out to be 82 nM.

For `CC(Oc1nc(-c2ccc(NC(=O)NC3CCN(C)CC3)cc2)cnc1N)c1c(F)ccc(F)c1Cl` (centres unmarked) [II-188, 1-(4-{5-Amino-6-[1-(2-chloro-3,6-difluoro-phenyl)-ethoxy]-pyrazin-2-yl}-phenyl)-3-(1-methyl-piperidin-4-yl)-urea], the IC50 was 54 nM.

With `CC(Oc1nc(-c2ccc(NC(=O)N3CCN(C)CC3)cc2)cnc1N)c1c(Cl)ccc(F)c1Cl` (centres unmarked) [II-189, 4-Methyl-piperazine-1-carboxylic acid (4-{5-amino-6-[1-(2,6-dichloro-3-fluoro-phenyl)-ethoxy]-pyrazin-2-yl}-phenyl)-amide], the IC50 stood at 74 nM.

Consider `CC(Oc1nc(-c2ccc(NC(=O)NCCO)cc2)cnc1N)c1c(Cl)ccc(F)c1Cl` (centres unmarked) [II-190, 1-(4-{5-Amino-6-[1-(2,6-dichloro-3-fluoro-phenyl)-ethoxy]-pyrazin-2-yl}-phenyl)-3-(2-hydroxy-ethyl)-urea], for which the IC50 was 280 nM.

Regarding `CC(Oc1nc(-c2ccc(NC(=O)N3CC[C@H](N)C3)cc2)cnc1N)c1c(Cl)ccc(F)c1Cl` (stereo partly drawn) [II-191, (S)-3-Amino-pyrrolidine-1-carboxylic acid (4-{5-amino-6-[1-(2,6-dichloro-3-fluoro-phenyl)-ethoxy]-pyrazin-2-yl}-phenyl)-amide], the IC50 was determined as 3000 nM.

Take `CC(Oc1nc(-c2ccc(NC(=O)NC3CCN(C)CC3)cc2)cnc1N)c1c(Cl)ccc(F)c1Cl` (centres unmarked) [II-192, 1-(4-{5-Amino-6-[1-(2,6-dichloro-3-fluoro-phenyl)-ethoxy]-pyrazin-2-yl}-phenyl)-3-(1-methyl-piperidin-4-yl)-urea]: the IC50 came out at 52 nM.

Turning to `CN1CCN(C(=O)c2ccc(-c3cnc(N)c(OCc4c(F)ccc(F)c4Cl)n3)s2)CC1` [II-194, {5-[5-Amino-6-(2-chloro-3,6-difluoro-benzyloxy)-pyrazin-2-yl]-thiophen-2-yl)(4-methyl-piperazin-1-yl)-methanone], the IC50 is 620 nM.

With `Nc1ncc(-c2ccc(C(=O)N3CCC(N4CCCC4)CC3)s2)nc1OCc1c(F)ccc(F)c1Cl` [II-195, {5-[5-Amino-6-(2-chloro-3,6-difluoro-benzyloxy)-pyrazin-2-yl]-thiophen-2-yl}-(4-pyrrolidin-1-yl-piperidin-1-yl)-methanone], the IC50 amounted to 510 nM.

Take `C[C@@H]1CN(C(=O)c2ccc(-c3cnc(N)c(OCc4c(F)ccc(F)c4Cl)n3)s2)C[C@H](C)N1` [II-196, {5-[5-Amino-6-(2-chloro-3,6-difluoro-benzyloxy)-pyrazin-2-yl]-thiophen-2-yl}-((3R,5S)-3,5-dimethyl-piperazin-1-yl)-methanone]: the IC50 is 550 nM.

For `Nc1ncc(-c2ccc(C(=O)N3CCC[C@@H]3CN3CCCC3)s2)nc1OCc1c(F)ccc(F)c1Cl` [II-197, {5-[5-Amino-6-(2-chloro-3,6-difluoro-benzyloxy)-pyrazin-2-yl]-thiophen-2-yl}-((R)-2-pyrrolidin-1-ylmethyl-pyrrolidin-1-yl)-methanone], the IC50 was determined as 800 nM.

On to `Nc1ncc(-c2ccc(C(=O)NCCN3CCOCC3)s2)nc1OCc1c(F)ccc(F)c1Cl` [II-198, 5-[5-Amino-6-(2-chloro-3,6-difluoro-benzyloxy)-pyrazin-2-yl]-thiophene-2-carboxylic acid (2-morpholin-4-yl-ethyl)-amide], for which the IC50 worked out at 700 nM.

Consider `CC(Oc1nc(-c2ccc(C(=O)N3CCN(C)CC3)cn2)cnc1N)c1c(Cl)ccc(F)c1Cl` (centres unmarked) [II-199, 3-[1-(2,6-dichloro-3-fluoro-phenyl)ethoxy]-5-{5-[(4-methylpiperazin-1-yl)carbonyl]-pyridin-2-yl}pyrazin-2-amine trifluoroacetate], for which the IC50 was determined as 150 nM.

As for `CC(Oc1nc(-c2ccncc2)cnc1N)c1c(Cl)ccc(F)c1Cl` (centres unmarked) [II-200, 3-[1-(2,6-Dichloro-3-fluoro-phenyl)-ethoxy]-5-pyridin-4-yl-pyrazin-2-ylamine], the IC50 worked out at 45 nM.

What is called IC50 is the concentration that gives 50% inhibition.
